Drawing on patent US6656911B2, “Serine protease inhibitors” (Cortech, Inc., priority 1994, dated 2003), this text covers Ki for five compounds.

pKi: −log10 of the molar value.

The term pKi denotes the Ki on a negative log10 scale, so that one unit is a factor of ten.

The assay addresses T1, elastase derived from human sputum (HSE) (Homo sapiens, UniProt P08246).
T1 construct: prepared from commercially available HSE (875 U/mg protein, SE-563, Elastin Product Co., Inc., Missouri, USA); purchased Elastin Product Co., Inc., Missouri, USA SE-563; host or cells: human sputum (natural enzyme)
T1 sequence (P08246 30-247 limits assumed): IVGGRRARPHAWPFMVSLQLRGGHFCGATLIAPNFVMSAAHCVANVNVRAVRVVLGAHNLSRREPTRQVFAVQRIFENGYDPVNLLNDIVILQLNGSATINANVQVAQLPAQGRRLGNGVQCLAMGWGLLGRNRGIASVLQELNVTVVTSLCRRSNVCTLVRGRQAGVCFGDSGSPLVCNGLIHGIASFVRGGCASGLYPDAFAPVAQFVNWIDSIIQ
The experiment in a line: In vitro inhibition of elastase (ONO-PO series). Format: biochemical. Particulars: substrate N-methoxysuccinyl-Ala-Ala-Pro-Val-p-nitroaniline, 37° C., pH 8.0, IC50 converted to Ki by Dixson plot.

`CC(C)[C@H](NC(=O)[C@@H]1CCCN1C(=O)[C@@H](NS(C)(=O)=O)C(C)C)C(=O)c1nnc(C(C)(C)c2ccccc2)o1` [ONO-PO-710, Methylsulfonyl-L-valyl-N-[1-(2-[5-(α,α-dimethylbenzyl)-1,3,4-oxadiazolyl]carbonyl)-2-(S)-methylpropyl]-L-prolinamide]: the pKi was 8.62.
Next, `CC(C)[C@H](NC(=O)Cn1c(-c2ccc(F)cc2)ncc(NC(=O)OCc2ccccc2)c1=O)C(=O)c1nnc(-c2ccccc2)o1` [ONO-PO-697, 2-[5-(Benzyloxycarbonyl)amino-6-oxo-2-(4-fluorophenyl)-1,6-dihydro-1-pyrimidinyl]-N-[1-(2-[5-phenyl-1,3,4-oxadiazolyl]carbonyl)-2-(S)-methylpropyl]acetamide]: 7.56; `CC(C)[C@H](NC(=O)[C@@H]1CCCN1C(=O)[C@@H](NS(C)(=O)=O)C(C)C)C(=O)c1nnc(C(C)(C)C)o1` [ONO-PO-713]: 7.92; `Cc1nnc(C(=O)[C@@H](NC(=O)Cn2c(-c3ccc(F)cc3)ncc(N)c2=O)C(C)C)o1` [ONO-PO-704, 2-[5-Amino-6-oxo-2-(4-fluorophenyl)-1,6-dihydro-1-pyrimidinyl]-N-[1-(2-[5-methyl-1,3,4-oxadiazolyl]carbonyl)-2-(S)-methylpropyl]acetamide]: 7.85.
Regarding `CC(C)[C@H](NC(=O)Cn1c(-c2ccc(F)cc2)nccc1=O)C(=O)c1nnc(C(C)(C)c2ccccc2)o1` [ONO-PO-722, 2-[6-Oxo-2-(4-fluorophenyl)-1,6-dihydro-1-pyrimidinyl]-N-[1-(2-[5-(α,α-dimethylbenzyl)-1,3,4-oxadiazolyl]carbonyl)-2-(S)-methylpropyl]acetamide], the pKi was 8.47. Against the preceding compound, the pKi is 0.62 log units higher.
